The values below come from BindingDB's records for doi:10.1111/cbdd.12587 (Jiangnan University, 2015).

What is called IC50 is the concentration that inhibits the measured activity by half. The low end stands for greater potency in that assay, the high end for weaker potency in that assay.

The structures appear in SMILES notation.

The assay deals with T1, Tyrosine-protein phosphatase non-receptor type 1 (Homo sapiens, UniProt P18031).
T1 sequence (P18031 whole entry): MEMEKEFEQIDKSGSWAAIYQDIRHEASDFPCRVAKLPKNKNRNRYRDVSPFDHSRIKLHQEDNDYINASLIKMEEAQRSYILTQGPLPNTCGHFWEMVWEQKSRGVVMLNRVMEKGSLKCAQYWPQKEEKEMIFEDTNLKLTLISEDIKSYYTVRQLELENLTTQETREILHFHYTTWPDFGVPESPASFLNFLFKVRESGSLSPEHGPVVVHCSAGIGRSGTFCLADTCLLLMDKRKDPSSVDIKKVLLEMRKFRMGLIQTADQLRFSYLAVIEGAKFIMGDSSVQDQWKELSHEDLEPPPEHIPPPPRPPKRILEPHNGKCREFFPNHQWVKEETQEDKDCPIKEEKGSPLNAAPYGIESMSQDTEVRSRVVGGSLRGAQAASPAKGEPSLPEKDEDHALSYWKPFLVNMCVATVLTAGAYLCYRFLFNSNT
The assay is described as follows: Colorimetric Assay. The following applies: pH 6.5. On the procedure: Briefly, the tested compounds were solubilized in DMSO and serially diluted into concentrations for the inhibitory test. The assays were carried out in a final volume of 100 µL containing 50 mmol/L MOPS, pH 6.5, 2 mmol/L pNPP, 21 nmol/L GST-PTP1B or GST-TCPTP, and 2% DMSO, and the catalysis of pNPP was continuously monitored on a SpectraMax 340 microplate reader at 405 nm for 3 min at 30 °C
In turn, `O=C(c1ccc(-c2ccc(C(=O)N3CCC4(CC3)CC(c3ccccc3F)=NO4)cc2)cc1)N1CCC2(CC1)CC(c1ccccc1F)=NO2` [Biphenyl-4,4'-diylbis((3-(2-fluorophenyl)-1-oxa-2,8-diazaspiro[4.5]dec-2-en-8-yl)methanone) (6g)] came in with an IC50 of 4.96 µM.
In the case of `O=C(c1ccc(-c2ccc(C(=O)N3CCC4(CC3)CC(c3cccc(F)c3)=NO4)cc2)cc1)N1CCC2(CC1)CC(c1cccc(F)c1)=NO2` [Biphenyl-4,4'-diylbis((3-(3-fluorophenyl)-1-oxa-2,8-diazaspiro[4.5]dec-2-en-8-yl)methanone) (6h)] it was 5.33 µM.
The compound `O=C(c1ccc(-c2ccc(C(=O)N3CCC4(CC3)CC(c3ccccc3)=NO4)cc2)cc1)N1CCC2(CC1)CC(c1ccccc1)=NO2` [Biphenyl-4,4'-diylbis((3-phenyl-1-oxa-2,8-diazaspiro[4.5]dec-2-en-8-yl)methanone) (6f)] came in with an IC50 of 2.87 µM. This IC50 lies about 1.9-fold lower than the previous one.
